Results published in paper PMC11653257, “Organometallic Half-Sandwich Complexes of 8-Hydroxyquinoline-Derived Mannich Bases with Enhanced Solubility: Targeting Multidrug Resistant Cancer” (Inorganic Chemistry, 2024).
≈ marks a conversion by molar mass, not a printed value. Like-named read-outs stand apart in the source and are kept apart here.

What was measured:
[1] = system: MES-SA/Dx5; assay: Cytotoxicity in double coculture, MES-SA/Dx5 eGFP; conditions: for IC50: read-out: IC50 MES-SA/Dx5; for SR = IC50 (MES-SA)/IC50 (MES-SA/Dx5): double coculture
Method: (§1) Therefore, the novel half-sandwich complexes (1–4) and their corresponding ligands were tested against a coculture of MES-SA and MES-SA/Dx5 cells expressing the fluorescent proteins mCherry or eGFP, respectively.[62]
(§2) The tested compounds were dissolved in 50% (v/v) DMSO/PBS’ buffer to prepare 5–10 mM stock solutions, which were diluted in complete culture medium. Constitutive expression of the fluorescent proteins allowed multiplexing in cytotoxicity experiments.[62] […] Serial dilutions of the compounds were added 24 h after seeding. To address the effect of P-gp function, TQ was added at a nontoxic concentration (0.4 μM) 15 min before the test compounds. […] IC50 values and standard deviation were calculated from average pIC50 values from at least 3 independent measurements.

[2] = system: MES-SA/B1; assay: Cytotoxicity in triple coculture, MES-SA/B1 mOrange; format: cell-based, human
Method: Cell lines were purchased from the American Type Culture Collection (ATCC). MES-SA/B1 is a human MDR1-transfected derivative of MES-SA, and MES-SA mCherry, MES-SA/B1 mOrange, and MES-SA/Dx5 eGFP were engineered to stably express the respective fluorescent proteins previously.[62] Cells were kept in culture medium (DMEM) supplemented with 10% fetal bovine serum, 2 mM L-glutamine, 100 units/mL penicillin, and 100 μg/mL streptomycin (Thermo Fisher). One week before use, MES-SA/Dx5 eGFP cells were treated with 0.5 μM doxorubicin to ensure ABCB1/P-gp expression.
The tested compounds were dissolved in 50% (v/v) DMSO/PBS’ buffer to prepare 5–10 mM stock solutions, which were diluted in complete culture medium. Constitutive expression of the fluorescent proteins allowed multiplexing in cytotoxicity experiments.[62] Cells were mixed before seeding in 384-well plates: in double cocultures, MES-SA mCherry and MES-SA/Dx5 eGFP cells were seeded at 1250–1250 cells/well (in total 2500 cells/well); while in triple cocultures, MES-SA mCherry, MES-SA/Dx5 eGFP and MES-SA/B1 mOrange cells were seeded at 800–800–800 cells/well (in total 2400 cells/well). Serial dilutions of the compounds were added 24 h after seeding. To address the effect of P-gp function, TQ was added at a nontoxic concentration (0.4 μM) 15 min before the test compounds. The intensity of the fluorescent proteins, which is proportional to cell mass, was measured after 144 h of incubation at the respective fluorescent channels (excitation/emission: eGFP: 485 nm/510 nm; mOrange: 545 nm/567 nm; mCherry: 585 nm/610 nm). pIC50 values were calculated by a custom program written by Judit Sessler in C#.[62] IC50 values and standard deviation were calculated from average pIC50 values from at least 3 independent measurements.

[3] = n-octanol/water distribution coefficient (shake-flask); format: physicochemical; conditions: pH 7.4
[4] = system: Escherichia coli (ATCC 25922); assay: Antibacterial MIC, E. coli; format: cell-based; conditions: Mueller Hinton Broth, 37 °C, 18 h
[5] = system: methicillin-resistant S. aureus (MRSA) ATCC 43300; assay: Antibacterial MIC, MRSA; format: cell-based, Staphylococcus aureus; conditions: Mueller Hinton Broth, 37 °C, 18 h
[6] = molecular target: human serum albumin (HSA), site II (Homo sapiens, UniProt P02768); assay: HSA dansylglycine (DG) site marker displacement
Chain of human serum albumin (HSA), site II (P02768 25-609): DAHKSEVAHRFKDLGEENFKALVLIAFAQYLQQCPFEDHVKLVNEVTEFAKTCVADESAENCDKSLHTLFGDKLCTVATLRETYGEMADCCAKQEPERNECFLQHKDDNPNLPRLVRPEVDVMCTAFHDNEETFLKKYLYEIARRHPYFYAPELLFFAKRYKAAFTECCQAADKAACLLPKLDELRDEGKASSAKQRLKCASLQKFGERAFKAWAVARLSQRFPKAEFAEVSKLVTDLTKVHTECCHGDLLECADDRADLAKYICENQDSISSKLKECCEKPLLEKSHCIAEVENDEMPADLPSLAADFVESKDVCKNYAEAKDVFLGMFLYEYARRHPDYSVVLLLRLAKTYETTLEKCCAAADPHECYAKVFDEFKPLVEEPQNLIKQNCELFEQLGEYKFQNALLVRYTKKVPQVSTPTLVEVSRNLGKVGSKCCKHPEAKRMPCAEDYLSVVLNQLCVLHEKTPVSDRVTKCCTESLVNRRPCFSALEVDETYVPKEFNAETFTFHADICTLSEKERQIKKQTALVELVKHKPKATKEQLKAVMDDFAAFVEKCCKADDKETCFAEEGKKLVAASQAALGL

[7] = system: MES-SA; assay: Cytotoxicity in double coculture, MES-SA mCherry; conditions: 144 h, read-out: IC50 MES-SA
Method: as §1, §2

[8] = molecular target: human serum albumin (HSA), Trp214 / site I (Homo sapiens, UniProt P02768); assay: HSA Trp214 fluorescence quenching
Chain of human serum albumin (HSA), Trp214 / site I (P02768 25-609): as above

[9] = system: Staphylococcus aureus (ATCC 25923); assay: Antibacterial MIC, S. aureus; format: cell-based; conditions: Mueller Hinton Broth, 37 °C, 18 h
[10] = H2O/Cl– coligand exchange by UV–vis titration with chloride ions; format: physicochemical; conditions: RhCp* complexes titrated at pH 7.4
Method: When the isolated complexes (1–4) are dissolved in water, their chlorido coligand can be replaced by water, or vice versa in the aqua complexes [M(arene)(HL)(H2O)]^2+, the H2O → Cl^– exchange process can take place in the presence of chloride ions. The chloride ion affinity of the complexes was also investigated by UV–vis spectrophotometry. RhCp* and RuCym complexes were titrated with chloride ions at pH 7.4 and 6.0, respectively. For this experiment, pH values were chosen at which the formation of the mixed hydroxido species is negligible. A representative spectrum series for complex (4) is shown in Figure S27, and the calculated conditional exchange constants (logK’ (H2O/Cl^–)) are given in Table 2 and in Figure S23. […] The complexes of the amino acid hybrids HQCl-D-Pro and HQCl-D-hPro have lower logK’ (H2O/Cl^–) constants most likely due to the repulsive effect of the nearby COO^– group.[26]

## Oc1c(CN2CCCCC2)cc(Cl)c2cccnc12 [HQCl-pip, 5-chloro-7-(piperidin-1-ylmethyl)quinolin-8-ol]
[1]; Homo sapiens, MES-SA/Dx5, 144 h
  IC50: 0.09 µM
[2]; Homo sapiens, MES-SA/B1, 144 h
  IC50: 0.38 µM
[3]; n-octanol/buffered aqueous solution, n-octanol/H2O, read-out: log D7.4
  logD at 4 h: 2.54
[4]; Escherichia coli, ATCC25922
  MIC: 50 µM (≈ 13.8 µg/mL)
[5]; Staphylococcus aureus
  MIC: 25 µM (≈ 6.92 µg/mL)
[6]
  Kd: 3.98 µM
[7]; Homo sapiens, MES-SA
  IC50: 1.09 µM
[8]
  Kd: 7.94 µM
[9]; Staphylococcus aureus, ATCC25923
  MIC: 50 µM (≈ 13.8 µg/mL)

## [RhCp*(HQCl-Pip)Cl]Cl [(3)]
[1]; + 0.4 μM tariquidar (TQ)
  SR = IC50 (MES-SA)/IC50 (MES-SA/Dx5): 1.3
[1]; without TQ
  SR = IC50 (MES-SA)/IC50 (MES-SA/Dx5): 9.1
[1]; double coculture with MES-SA, 144 h, without TQ
  IC50: 0.22 µM
[2]
  SR B1 = IC50 (MES-SA)/IC50 (MES-SA/B1): 2.9
[2]; 144 h
  IC50: 0.74 µM
[3]; c(Cl–) = 4 mM
  logD7.4: +0.34 ± 0.01
[3]; c(Cl–) = 24 mM
  logD7.4: +0.58 ± 0.01
[3]; c(Cl–) = 100 mM
  logD7.4: +0.60 ± 0.01
[4]
  MIC: 50 µM
[5]
  MIC: 25 µM
[6]; cHSA = cDG = 1 μM, λEX = 335 nm (DG), pH 7.4 (PBS’), […], 24 h
  logK’(DG): 5.0 ± 0.1
[7]; double coculture with MES-SA/Dx5, without TQ
  IC50: 2.04 µM
[8]; 1 μM HSA, λEX = 295 nm (Trp-214), pH 7.4 (PBS’), […], 24 h
  logK’(quenching): 5.1 ± 0.1
[10]
  logK’ (H2O/Cl–): 2.21 ± 0.03
[9]
  MIC: 50 µM
